Like-named read-outs stand apart in the source and are kept apart here.
Tests used:
[1] = tested on: complement alternative pathway (AP) activity; test: Steady-state / PK-PD modeling of AP inhibition versus plasma concentration; set-up: species or system human
Protocol: Based on the ex vivo AP inhibition assay, a steady state model was prepared comparing the % inhibition of Ap based on drug plasma concentration. […] Therefore, Compound 1 is shown to be potent while still having improved safety margins that may allow for better dosing flexibility.

[2] = Phase I single ascending dose (SAD) study: plasma and urine pharmacokinetics; format: in vivo, human; details: for Aeu(%), GM / Aeu(%), Mean: percentage of dose
Protocol: A single ascending dose (SAD) study was the first-in-human study of Compound 1. […] Secondary objectives included evaluation of the pharmacokinetic (PK) profile and the relationship between Compound 1 PK and pharmacodynamic (PD) characteristics, that is, the inhibition of complement alternative pathway (AP) activity (PK/PD).
[…] were dosed and evaluated in 4 dose groups with ten subjects receiving placebo (Table 1). The first dose group had 6 active and 6 placebo subjects; subsequent groups had 6 active and 2 placebo subjects each. Each group was followed for 28 days after dosing. All subjects were monitored for safety through the last scheduled visit at Day 28. Blood and urine samples were collected at predefined time points from Days 1 to 4 to determine plasma and urine concentrations of Compound 1 and from Days 1 to 7 to determine complement related activities. Results of serum AP activity measured by AP Wieslab assay as well as plasma Bb, factor D level and several other PD biomarkers were determined.
For the 18 subjects comprising the Groups 1-3 SAD PK population, a total of 306 plasma samples (17 samples from each subject collected pre-dose and 0.5, 1, 1.5, 2, 2.5, 3, 4, 6, 8, 10, 12, 16, 24 [Day 2], 48 [Day 3], 72 [Day 4], and 144 [Day 7] hours post-dose) were available for PK determination in plasma.
Single ascending doses of Compound 1 were evaluated to determine plasma and urine PK parameters over the dose range of 40 mg to 120 mg studied. Summary statistics for plasma and urine Compound 1 concentration at each nominal sampling time point are presented by randomized treatment group in Table 2.

[3] = 40 mg single dose, fasted, plasma
[4] = 40 mg single dose, fasted, urine
[5] = 80 mg single dose, fasted, plasma
[6] = 80 mg single dose, fasted, urine
[7] = 120 mg single dose, fasted, plasma
[8] = 120 mg single dose, fasted, urine

EC90 (plasma concentration providing about 90% AP activity inhibition) ([1]; modeling): 67 to 88 ng/mL
IC90 of AP activity (Ctrough for 90% inhibition) ([1]; steady-state modeling from SAD ex vivo AP inhibition, FIG. 10): about 67 ng/mL
Maximum mean plasma concentration ([2]; 40 mg single dose): 78.03 ± 19.65 ng/mL
CL/F, GM [2, 3]: 81.26 L/h
CL/F, Mean [2, 3]: 84.27 L/h
t½term, GM [2, 3]: 12.51 h
t½term, Mean [2, 3]: 13.08 h
Aeu, GM [2, 4]: 0.0671 mg
Aeu, Mean [2, 4]: 0.0749 mg
Aeu(%), GM [2, 4]: 0.17%
Aeu(%), Mean [2, 4]: 0.19%
Maximum mean plasma concentration ([2]; 80 mg single dose): 224.05 ± 108.27 ng/mL
CL/F, GM [2, 5]: 63.52 L/h
CL/F, Mean [2, 5]: 70.25 L/h
t½term, GM [2, 5]: 9.80 h
t½term, Mean [2, 5]: 9.92 h
Aeu, GM [2, 6]: 0.2045 mg
Aeu, Mean [2, 6]: 0.3058 mg
Aeu(%), GM [2, 6]: 0.26%
Aeu(%), Mean [2, 6]: 0.38%
Maximum mean plasma concentration ([2]; 120 mg single dose): 282.83 ± 89.15 ng/mL
CL/F, GM [2, 7]: 71.87 L/h
CL/F, Mean [2, 7]: 73.25 L/h
t½term, GM [2, 7]: 12.67 h
t½term, Mean [2, 7]: 13.90 h
Aeu, GM [2, 8]: 0.2683 mg
Aeu, Mean [2, 8]: 0.2913 mg
Aeu(%), GM [2, 8]: 0.22%
Aeu(%), Mean [2, 8]: 0.24%
last post-dose time point with detected plasma concentration ([2]; all SAD dose groups): 72 h
CL renal ([2]; human, plasma and urine, oral, 40 mg to 120 mg single dose, read-out: Renal clearance, geometric mean, range over dose groups): 2.67 to 3.17 mL/min
AUC(0-inf) ([2]; human, plasma, oral, 40 mg, 40 mg single dose, fasted, plasma, read-out: AUC0-inf, GM): 492 ng·h/mL
AUC(0-inf) ([2]; human, plasma, oral, 40 mg, 40 mg single dose, fasted, plasma, read-out: AUC0-inf, Mean): 514 ng·h/mL
Cmax ([2]; human, plasma, oral, 40 mg, 40 mg single dose, fasted, plasma, read-out: Cmax, GM): 85.3 ng/mL
Cmax ([2]; human, plasma, oral, 40 mg, 40 mg single dose, fasted, plasma, read-out: Cmax, Mean): 88.6 ng/mL
Cmax ([2]; human, plasma, oral, 40 mg, 40 mg single dose, fasted, plasma, read-out: Cmax, Median): 79.1 ng/mL
Vd/F ([2]; human, plasma, oral, 40 mg, 40 mg single dose, fasted, plasma, read-out: Vz/F, GM): 1470 L
Vd/F ([2]; human, plasma, oral, 40 mg, 40 mg single dose, fasted, plasma, read-out: Vz/F, Mean): 1500 L
Tmax ([2]; human, plasma, oral, 40 mg, 40 mg single dose, fasted, plasma, read-out: tmax, GM): 1.65 h
Tmax ([2]; human, plasma, oral, 40 mg, 40 mg single dose, fasted, plasma, read-out: tmax, Mean): 1.75 h
Tmax ([2]; human, plasma, oral, 40 mg, 40 mg single dose, fasted, plasma, read-out: tmax, Median): 1.5 h
AUC(0-inf) ([2]; human, plasma, oral, 80 mg, 80 mg single dose, fasted, plasma, read-out: AUC0-inf, GM): 1260 ng·h/mL
AUC(0-inf) ([2]; human, plasma, oral, 80 mg, 80 mg single dose, fasted, plasma, read-out: AUC0-inf, Mean): 1390 ng·h/mL
Cmax ([2]; human, plasma, oral, 80 mg, 80 mg single dose, fasted, plasma, read-out: Cmax, GM): 232 ng/mL
Cmax ([2]; human, plasma, oral, 80 mg, 80 mg single dose, fasted, plasma, read-out: Cmax, Mean): 253 ng/mL
Cmax ([2]; human, plasma, oral, 80 mg, 80 mg single dose, fasted, plasma, read-out: Cmax, Median): 247 ng/mL
Vd/F ([2]; human, plasma, oral, 80 mg, 80 mg single dose, fasted, plasma, read-out: Vz/F, GM): 899 L
Vd/F ([2]; human, plasma, oral, 80 mg, 80 mg single dose, fasted, plasma, read-out: Vz/F, Mean): 992 L
Tmax ([2]; human, plasma, oral, 80 mg, 80 mg single dose, fasted, plasma, read-out: tmax, GM): 1.85 h
Tmax ([2]; human, plasma, oral, 80 mg, 80 mg single dose, fasted, plasma, read-out: tmax, Mean): 2 h
Tmax ([2]; human, plasma, oral, 80 mg, 80 mg single dose, fasted, plasma, read-out: tmax, Median): 1.75 h
AUC(0-inf) ([2]; human, plasma, oral, 120 mg, 120 mg single dose, fasted, plasma, read-out: AUC0-inf, GM): 1670 ng·h/mL
AUC(0-inf) ([2]; human, plasma, oral, 120 mg, 120 mg single dose, fasted, plasma, read-out: AUC0-inf, Mean): 1710 ng·h/mL
Cmax ([2]; human, plasma, oral, 120 mg, 120 mg single dose, fasted, plasma, read-out: Cmax, GM): 303 ng/mL
Cmax ([2]; human, plasma, oral, 120 mg, 120 mg single dose, fasted, plasma, read-out: Cmax, Mean): 316 ng/mL
Cmax ([2]; human, plasma, oral, 120 mg, 120 mg single dose, fasted, plasma, read-out: Cmax, Median): 260 ng/mL
Vd/F ([2]; human, plasma, oral, 120 mg, 120 mg single dose, fasted, plasma, read-out: Vz/F, GM): 1310 L
Vd/F ([2]; human, plasma, oral, 120 mg, 120 mg single dose, fasted, plasma, read-out: Vz/F, Mean): 1460 L
Tmax ([2]; human, plasma, oral, 120 mg, 120 mg single dose, fasted, plasma, read-out: tmax, GM): 2.54 h
Tmax ([2]; human, plasma, oral, 120 mg, 120 mg single dose, fasted, plasma, read-out: tmax, Mean): 2.58 h
Tmax ([2]; human, plasma, oral, 120 mg, 120 mg single dose, fasted, plasma, read-out: tmax, Median): 2.75 h
half-life ([2]; human, plasma, oral, 40 mg to 120 mg single dose, read-out: Mean terminal elimination half-life (t1/2 term), range over dose groups): 595 to 834 min
Tmax ([2]; human, plasma, oral, 40 mg to 120 mg single dose, read-out: Median tmax, range over dose groups): 1.5 to 2.75 h
CL renal ([2]; human, urine, oral, 40 mg, 40 mg single dose, fasted, urine, read-out: CLr, GM (converted)): 2.67 mL/min
CL renal ([2]; human, urine, oral, 40 mg, 40 mg single dose, fasted, urine, read-out: CLr, Mean (converted)): 2.67 mL/min
CL renal ([2]; human, urine, oral, 80 mg, 80 mg single dose, fasted, urine, read-out: CLr, GM (converted)): 3 mL/min
CL renal ([2]; human, urine, oral, 80 mg, 80 mg single dose, fasted, urine, read-out: CLr, Mean (converted)): 3.5 mL/min
CL renal ([2]; human, urine, oral, 120 mg, 120 mg single dose, fasted, urine, read-out: CLr, GM (converted)): 3.17 mL/min
CL renal ([2]; human, urine, oral, 120 mg, 120 mg single dose, fasted, urine, read-out: CLr, Mean (converted)): 3.5 mL/min
Structure (SMILES): CC(=O)c1nn(CC(=O)N2[C@H](C(=O)Nc3nc(Br)ccc3C)C[C@@]3(C)C[C@@H]23)c2ccc(-c3cnc(C)nc3)cc12 [Compound 1, (1R,3S,5R)-2-(2-(3-acetyl-5-(2-methylpyrimidin-5-yl)-1H-indazol-1-yl)acetyl)-N-(6-bromo-3-methylpyridin-2-yl)-5-methyl-2-azabicyclo[3.1.0]hexane-3-carboxamide]
inhibition of AP activity ([1]; at Ctrough of 65 ng/mL to 95 ng/mL): greater than 85%
AP inhibition ([1]; at Ctrough of about 88 ng/mL): > 90%
AP inhibition ([1]; at Ctrough of about 67-88 ng/mL): greater than 90%

Source: US12239645B2, “Targeted dosing for the treatment of complement mediated disorders” (Achillion Pharmaceuticals, Inc., priority 2018, dated 2025)
